Test results: US12286429B2, “5-oxo-1,2,3,5,8,8a-hexahydroindolizine-3-carboxamide derivatives useful as a factor XIa inhibitors” (Janssen Pharmaceutica NV, priority 2021, dated 2025)

How the values were obtained:
Factor XIa = Factor XIa (Homo sapiens, UniProt P03951); assay: Factor XIa inhibition assay utilizing a fluorophore-quencher pair peptide substrate (FLINT); assay type: biochemical; settings: 11-point, 3-fold serial dilution, top 100 nM; 30 min preincubation; 15 μM 5Fam-KLTRAETV-K5Tamra substrate; kinetic reads over 30 min; read-out: FXIa Inhibition IC50
Method in brief: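 FXIa ([…]) preincubated 30 min with compound (11-point, 3-fold, top 100 nM, 2% DMSO) in Tris pH 7.5, NaCl, CaCl2, BSA, CHAPS; 15 μM 5Fam-KLTRAETV-K5Tamra substrate then added. Fluorescence (485/520 nm) read kinetically over 30 min at room temperature; IC50 by 4-parameter fit.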

human plasma kallikrein = human plasma kallikrein (Homo sapiens, UniProt P03952); assay: Kallikrein inhibition assay utilizing a quenched AMC peptide substrate (FLINT); assay type: biochemical; settings: 11-point, 3-fold serial dilution, top 1 μM; 30 min preincubation; 2 nM kallikrein; 50 μM Z-Gly-Pro-Arg-AMC; kinetic reads over 30 min
Method in brief: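 Human plasma kallikrein (2 nM final) was pre-incubated 30 min at room temperature with compound (11-point 3-fold series, top 1 μM, 2% DMSO) in Tris pH 7.5, NaCl, CaCl2, BSA, CHAPS buffer. Reaction started with 50 μM Z-Gly-Pro-Arg-AMC (KM 40 μM), and fluorescence (340/440 nm) was read kinetically over 30 min. IC50 came from a 4-parameter logistic fit.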

Sequence of human plasma kallikrein (P03952 391-638 limits assumed): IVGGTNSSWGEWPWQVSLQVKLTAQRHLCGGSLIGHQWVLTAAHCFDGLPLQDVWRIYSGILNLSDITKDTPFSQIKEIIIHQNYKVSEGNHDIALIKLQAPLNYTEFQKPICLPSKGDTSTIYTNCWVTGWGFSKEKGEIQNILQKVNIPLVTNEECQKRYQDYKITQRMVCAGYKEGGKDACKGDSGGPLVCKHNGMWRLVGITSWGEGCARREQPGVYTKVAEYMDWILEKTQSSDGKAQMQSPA
Sequence of human plasma kallikrein (P03952 20-390 partner limits assumed): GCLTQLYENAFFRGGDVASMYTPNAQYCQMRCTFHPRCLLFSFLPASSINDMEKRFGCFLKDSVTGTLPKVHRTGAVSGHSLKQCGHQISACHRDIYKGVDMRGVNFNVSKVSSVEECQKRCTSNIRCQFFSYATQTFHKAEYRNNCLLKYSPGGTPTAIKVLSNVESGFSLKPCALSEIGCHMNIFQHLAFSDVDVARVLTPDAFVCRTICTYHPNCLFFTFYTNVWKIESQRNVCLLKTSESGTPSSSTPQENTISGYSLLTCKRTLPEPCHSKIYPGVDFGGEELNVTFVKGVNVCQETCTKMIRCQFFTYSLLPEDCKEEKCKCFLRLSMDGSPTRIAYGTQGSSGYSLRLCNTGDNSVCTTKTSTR
Sequence of Factor XIa (P03951 388-625 limits assumed): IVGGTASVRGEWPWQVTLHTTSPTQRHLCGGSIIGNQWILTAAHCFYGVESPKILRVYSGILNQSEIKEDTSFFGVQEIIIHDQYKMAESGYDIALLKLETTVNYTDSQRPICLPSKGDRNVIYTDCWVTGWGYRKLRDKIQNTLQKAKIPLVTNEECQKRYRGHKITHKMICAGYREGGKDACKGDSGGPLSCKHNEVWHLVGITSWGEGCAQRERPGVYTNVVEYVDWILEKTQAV
Sequence of Factor XIa (P03951 19-387 partner limits assumed): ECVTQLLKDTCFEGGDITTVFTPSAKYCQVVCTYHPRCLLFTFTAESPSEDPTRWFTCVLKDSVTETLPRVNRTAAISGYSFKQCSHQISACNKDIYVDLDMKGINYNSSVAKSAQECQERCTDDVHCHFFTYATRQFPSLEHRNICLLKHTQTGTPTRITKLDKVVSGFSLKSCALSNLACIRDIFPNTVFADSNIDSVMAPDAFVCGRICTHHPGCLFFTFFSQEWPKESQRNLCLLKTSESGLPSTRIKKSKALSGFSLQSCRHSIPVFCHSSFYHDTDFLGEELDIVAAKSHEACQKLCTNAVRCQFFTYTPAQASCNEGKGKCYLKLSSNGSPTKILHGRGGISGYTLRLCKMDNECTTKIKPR

Work on `Cn1nnnc1-c1ccc(NC(=O)[C@@H]2CCC3CC(c4c(-n5cnnn5)ccc(Cl)c4F)=CC(=O)N32)cc1` (mixture of isomers) [ID No. 70, (3S)-7-[3-Chloro-2-fluoro-6-(tetrazol-1-yl)phenyl]-N-[4-(1-methyltetrazol-5-yl)phenyl]-5-oxo-2,3,8,8a-tetrahydro-1H-indolizine-3-carboxamide] yielded an IC50 (Factor XIa) of 84.8 nM and an IC50 (human plasma kallikrein) of 436 nM.

`Cn1nncc1-c1ccc(NC(=O)[C@@H]2CCC3CC(c4c(-n5cnnn5)ccc(Cl)c4F)=CC(=O)N32)cc1` (mixture of isomers) [ID No. 71, (3S)-7-[3-Chloro-2-fluoro-6-(tetrazol-1-yl)phenyl]-N-[4-(3-methyltriazol-4-yl)phenyl]-5-oxo-2,3,8,8a-tetrahydro-1H-indolizine-3-carboxamide] was tested, and the IC50 (Factor XIa) was 46 nM and the IC50 (human plasma kallikrein) was 156 nM.

With `O=C(Nc1ccc(-c2nnn[nH]2)cc1)[C@@H]1CCC2CC(c3c(-n4cnnn4)ccc(Cl)c3F)=CC(=O)N21` (mixture of isomers) [ID No. 72, (3S)-7-[3-Chloro-2-fluoro-6-(tetrazol-1-yl)phenyl]-5-oxo-N-[4-(1H-tetrazol-5-yl)phenyl]-2,3,8,8a-tetrahydro-1H-indolizine-3-carboxamide] the IC50 (Factor XIa) was 0.7 nM and the IC50 (human plasma kallikrein) was 20.4 nM.

Compound `O=C(Nc1ccc(-n2cnnn2)cc1)[C@@H]1CCC2CC(c3c(-n4cnnn4)ccc(Cl)c3F)=CC(=O)N21` (mixture of isomers) [ID No. 73, (3S)-7-[3-Chloro-2-fluoro-6-(tetrazol-1-yl)phenyl]-5-oxo-N-[4-(tetrazol-1-yl)phenyl]-2,3,8,8a-tetrahydro-1H-indolizine-3-carboxamide] has an IC50 (Factor XIa) of 26.3 nM and an IC50 (human plasma kallikrein) of 156 nM.

In the case of `O=C(Nc1ccc(-c2ncc[nH]2)cc1)[C@@H]1CCC2CC(c3c(-n4cnnn4)ccc(Cl)c3F)=CC(=O)N21` (mixture of isomers) [ID No. 74, (3S)-7-[3-Chloro-2-fluoro-6-(tetrazol-1-yl)phenyl]-N-[4-(1H-imidazol-2-yl)phenyl]-5-oxo-2,3,8,8a-tetrahydro-1H-indolizine-3-carboxamide], the IC50 (Factor XIa) is reported as 2 nM and the IC50 (human plasma kallikrein) is reported as 40.7 nM.

For `O=C(Nc1ccc(-c2n[nH]c(=O)o2)cc1)[C@@H]1CCC2CC(c3c(-n4cnnn4)ccc(Cl)c3F)=CC(=O)N21` (mixture of isomers) [ID No. 75, (3S)-7-[3-Chloro-2-fluoro-6-(tetrazol-1-yl)phenyl]-5-oxo-N-[4-(2-oxo-3H-1,3,4-oxadiazol-5-yl)phenyl]-2,3,8,8a-tetrahydro-1H-indolizine-3-carboxamide], the IC50 (Factor XIa) was 1.8 nM and the IC50 (human plasma kallikrein) was 11.2 nM.

Work on `O=C(Nc1ccc(-c2nc(=O)o[nH]2)cc1)[C@@H]1CCC2CC(c3c(-n4cnnn4)ccc(Cl)c3F)=CC(=O)N21` (mixture of isomers) [ID No. 76, (3S)-7-[3-Chloro-2-fluoro-6-(tetrazol-1-yl)phenyl]-5-oxo-N-[4-(5-oxo-2H-1,2,4-oxadiazol-3-yl)phenyl]-2,3,8,8a-tetrahydro-1H-indolizine-3-carboxamide] yielded an IC50 (Factor XIa) of 0.3 nM and an IC50 (human plasma kallikrein) of 22.2 nM.

In the case of `Cn1cnc(-c2ccc(NC(=O)[C@@H]3CCC4CC(c5c(-n6cnnn6)ccc(Cl)c5F)=CC(=O)N43)cc2)n1` (mixture of isomers) [ID No. 77, (3S)-7-[3-Chloro-2-fluoro-6-(tetrazol-1-yl)phenyl]-N-[4-(1-methyl-1,2,4-triazol-3-yl)phenyl]-5-oxo-2,3,8,8a-tetrahydro-1H-indolizine-3-carboxamide], the IC50 (Factor XIa) is reported as 8 nM and the IC50 (human plasma kallikrein) is reported as 63.5 nM.

`CC1C[C@@H](C(=O)Nc2ccc3ncccc3c2)N2C(=O)C=C(c3c(-n4cnnn4)ccc(Cl)c3F)CC12` (mixture of isomers) [ID No. 82, (3S)-7-[3-Chloro-2-fluoro-6-(tetrazol-1-yl)phenyl]-1-methyl-5-oxo-N-(6-quinolyl)-2,3,8,8a-tetrahydro-1H-indolizine-3-carboxamide] gave an IC50 (Factor XIa) of 7.9 nM and an IC50 (human plasma kallikrein) of 8 nM.

With `CC1C[C@@H](C(=O)Nc2ccc3nn(C)cc3c2)N2C(=O)C=C(c3c(-n4cnnn4)ccc(Cl)c3F)CC12` (mixture of isomers) [ID No. 83, (3S)-7-[3-Chloro-2-fluoro-6-(tetrazol-1-yl)phenyl]-1-methyl-N-(2-methyl-2H-indazol-5-yl)-5-oxo-2,3,8,8a-tetrahydro-1H-indolizine-3-carboxamide] the IC50 (Factor XIa) was 17.8 nM and the IC50 (human plasma kallikrein) was 27 nM.

With `CC1C[C@@H](C(=O)Nc2ccc3n[nH]cc3c2)N2C(=O)C=C(c3c(-n4cnnn4)ccc(Cl)c3F)CC12` (mixture of isomers) [ID No. 84, (3S)-7-[3-Chloro-2-fluoro-6-(tetrazol-1-yl)phenyl]-N-(2H-indazol-5-yl)-1-methyl-5-oxo-2,3,8,8a-tetrahydro-1H-indolizine-3-carboxamide] the IC50 (Factor XIa) was 19.3 nM and the IC50 (human plasma kallikrein) was 27.8 nM.

`CC1C[C@@H](C(=O)Nc2ccc3nccnc3c2)N2C(=O)C=C(c3c(-n4cnnn4)ccc(Cl)c3F)CC12` (mixture of isomers) [ID No. 85, (3S)-7-[3-Chloro-2-fluoro-6-(tetrazol-1-yl)phenyl]-1-methyl-5-oxo-N-quinoxalin-6-yl-2,3,8,8a-tetrahydro-1H-indolizine-3-carboxamide] showed an IC50 (Factor XIa) of 9.9 nM and an IC50 (human plasma kallikrein) of 12.2 nM.

Compound `C[C@@H](O)c1cnc2cc(NC(=O)[C@@H]3CCC4CC(c5c(-n6cnnn6)ccc(Cl)c5F)=CC(=O)N43)ccc2n1` (relative stereo) [ID No. 1, (3S*)-7-(3-chloro-2-fluoro-6-(1H-tetrazol-1-yl)phenyl)-N-(2-((R*)-1-hydroxyethyl)quinoxalin-6-yl)-5-oxo-1,2,3,5,8,8a-hexahydroindolizine-3-carboxamide] has an IC50 (Factor XIa) of 5 nM and an IC50 (human plasma kallikrein) of 9.7 nM.

`C[C@@H](O)c1cnc2cc(NC(=O)[C@@H]3CCC4CC(c5c(-n6cnnn6)ccc(Cl)c5F)=CC(=O)N43)ccc2n1` (single isomer, unassigned) [ID No. 2] showed an IC50 (Factor XIa) of 6.4 nM and an IC50 (human plasma kallikrein) of 11.3 nM.

`COCCn1cc2cc(NC(=O)C3CCC4CC(c5c(-n6cnnn6)ccc(Cl)c5F)=CC(=O)N43)ccc2n1` (single isomer, unassigned) [ID No. 3, (3S*)-7-(3-chloro-2-fluoro-6-(1H-tetrazol-1-yl)phenyl)-N-(2-(2-methoxyethyl)-2H-indazol-5-yl)-5-oxo-1,2,3,5,8,8a-hexahydroindolizine-3-carboxamide] showed an IC50 (Factor XIa) of 6 nM and an IC50 (human plasma kallikrein) of 35.6 nM.

Compound `COCCNC(=O)c1ccc(NC(=O)[C@@H]2CC[C@@H]3CC(c4c(-n5cnnn5)ccc(Cl)c4F)=CC(=O)N32)cc1F` (single isomer, unassigned) [ID No. 5, (3S,8aR*)-7-(3-chloro-2-fluoro-6-(1H-tetrazol-1-yl)phenyl)-N-(3-fluoro-4-((2-methoxyethyl)carbamoyl)phenyl)-5-oxo-1,2,3,5,8,8a-hexahydroindolizine-3-carboxamide] has an IC50 (Factor XIa) of 15.5 nM and an IC50 (human plasma kallikrein) of 128 nM.

`O=C(Nc1ccc2nn(C(F)F)cc2c1)[C@@H]1CCC2CC(c3c(-n4cnnn4)ccc(Cl)c3F)=CC(=O)N21` (single isomer, unassigned) [ID No. 22, (3S,8aS*)-7-(3-Chloro-2-fluoro-6-(1H-tetrazol-1-yl)phenyl)-N-(2-(difluoromethyl)-2H-indazol-5-yl)-5-oxo-1,2,3,5,8,8a-hexahydroindolizine-3-carboxamide] showed an IC50 (Factor XIa) of 4.2 nM and an IC50 (human plasma kallikrein) of 19.3 nM.

`O=C(Nc1ccc2nn(C(F)F)cc2c1)[C@@H]1CC[C@@H]2CC(c3c(-n4cnnn4)ccc(Cl)c3F)=CC(=O)N21` (single isomer, unassigned) [ID No. 23] was tested, and the IC50 (Factor XIa) was 8.3 nM and the IC50 (human plasma kallikrein) was 31.1 nM.

With `O=C(Nc1ccc(-c2nc(=O)o[nH]2)c(F)c1)[C@@H]1CCC2CC(c3c(-n4cnnn4)ccc(Cl)c3F)=CC(=O)N21` (single isomer, unassigned) [ID No. 35, (3S,8aR*)-7-[3-Chloro-2-fluoro-6-(tetrazol-1-yl)phenyl]-N-[3-fluoro-4-(5-oxo-2H-1,2,4-oxadiazol-3-yl)phenyl]-5-oxo-2,3,8,8a-tetrahydro-1H-indolizine-3-carboxamide] the IC50 (Factor XIa) was 0.4 nM and the IC50 (human plasma kallikrein) was 6.4 nM.

`O=C(Nc1ccc(-c2nc(=O)o[nH]2)c(F)c1)[C@@H]1CC[C@H]2CC(c3c(-n4cnnn4)ccc(Cl)c3F)=CC(=O)N21` (single isomer, unassigned) [ID No. 36, (3S,8aS*)-7-(3-Chloro-2-fluoro-6-(1H-tetrazol-1-yl)phenyl)-N-(3-fluoro-4-(5-oxo-2,5-dihydro-1,2,4-oxadiazol-3-yl)phenyl)-5-oxo-1,2,3,5,8,8a-_hexahydroindolizine-3-carboxamide] was tested, and the IC50 (Factor XIa) was 0.4 nM and the IC50 (human plasma kallikrein) was 8.8 nM.

Work on `Cc1nc(-c2ccc(NC(=O)[C@@H]3CC[C@@H]4CC(c5c(-n6cnnn6)ccc(Cl)c5F)=CC(=O)N43)cc2)no1` (single isomer, unassigned) [ID No. 50] yielded an IC50 (Factor XIa) of 31.8 nM and an IC50 (human plasma kallikrein) of 57 nM.

`O=C(O)c1ccc(NC(=O)[C@@H]2CCC3CC(c4c(-n5cnnn5)ccc(Cl)c4F)=CC(=O)N32)cc1F` (single isomer, unassigned) [ID No. 51, (3S,8aS*)-4-[[7-[3-Chloro-2-fluoro-6-(tetrazol-1-yl)phenyl]-5-oxo-2,3,8,8a-tetrahydro-1H-indolizine-3-carbonyl]amino]-2-fluoro-benzoic acid] gave an IC50 (Factor XIa) of 2.5 nM and an IC50 (human plasma kallikrein) of 149 nM.

`O=C(O)c1ccc(NC(=O)[C@@H]2CC[C@@H]3CC(c4c(-n5cnnn5)ccc(Cl)c4F)=CC(=O)N32)cc1F` (single isomer, unassigned) [ID No. 52, (3S,8R*)-4-[[7-[3-Chloro-2-fluoro-6-(tetrazol-1-yl)phenyl]-5-oxo-2,3,8,8a-tetrahydro-1H-indolizine-3-carbonyl]amino]-2-fluoro-benzoic acid] showed an IC50 (Factor XIa) of 0.9 nM and an IC50 (human plasma kallikrein) of 70.8 nM.
